Experimental data as given in patent US20030027243A1, “Antifungal compounds and methods of use” (Anadys Pharmaceuticals, Inc., priority 2000, published 2003).

What was measured:
Assay in all cases: Broth microdilution antifungal susceptibility test (NCCLS M27A based), MIC
Assay type in all cases: cell-based
Conditions in all cases: quality control range for control compounds, 35° C., 48 hours
[1] = system: Saccharomyces cerevisiae, e.g., CTY552
From the text: (§1) Non-limiting examples of such procedures test the candidate inhibitor compounds for antifungal activity against a panel of three strains: C. albicans, S. cerevisiae , and A. nidulans. One such procedure is based on the NCCLS M27A method (The National Committee for Clinical Laboratory Standards, Reference Method for Broth Microdilution Antifungal Susceptibility Testing of Yeasts; approved standard, 1997) to measure minimum inhibitory concentrations (MICs) and minimum fungicidal concentrations (MFCs). An overview of this of this protocol follows.
(§2) 3. RPMI-1640: 10.4 g powdered media (Sigma R-6504, w/ glutamine & w/o bicarbonate); 2.0 g NaHCO3 (Sigma S-6297); 34.53 g MOPS buffer (Sigma M-6270). Dissolve powdered media and NaHCO3 in 900 ml distilled water. Add MOPS and stir until dissolved. Adjust pH to 7.0 using 1N NaOH. Bring final volume to 1 liter, filter sterilize, and store at 4° C.
(§3) 1. Yeasts: Yeasts (Saccharonyces cerevisiae and Candida albicans) are cultured on Sabouraud dextrose agar (SDA) plates in a 35° C. incubator. Strains on SDA plates are stored at 4° C. and used as working stock cultures. Working stock plates are prepared once a month from frozen stocks of cells. Inoculum for susceptibility testing is prepared from fresh 24 hour cultures. 5-10 colonies are scraped from the plate and suspended in three milliliters of sterile 0.85% saline (8.5 g/liter NaCl). The cell density of the solution is determined by measuring the absorbance in a spectrophotometer (Shimadzu UV-1201S UV-VIS Spectrophotometer) set at 600 nm. An absorbance value between 0.1 and 0.4 is required for an accurate reading. […]
(§4) Stock solutions of control compounds (1.6 mg/ml, Amphotericin B or Itraconazole) are initially diluted in medium to a concentration of 32 ug/ml while stock solutions of test compounds (typically 12.8 mg/ml) are diluted to 256 ug/ml. […] If a stock solution of a test compound is not at 12.8 mg/ml, the appropriate dilution must be calculated. […]

[2] = system: Candida albicans, e.g., ATCC 10231
From the text: as §1, §2, §3, §4

[3] = system: Aspergillus nidulans, e.g., NRRL 194 (ATCC 38163)
From the text: as §1
3. RPMI-1640: 10.4 g powdered media (Sigma R-6504, w/ glutamine & w/o bicarbonate); 2.0 g NaHCO3 (Sigma S-6297); 34.53 g MOPS buffer (Sigma M-6270). Dissolve powdered media and NaHCO3 in 900 ml distilled water. Add MOPS and stir until dissolved. Adjust pH to 7.0 using 1N NaOH. […]
2. […] The turbidity of the solution is determined by measuring the absorbance in a spectrophotometer (Shimadzu UV-1201S UV-VIS Spectrophotometer) set at 600 nm. An absorbance value between 0.1 and 0.4 is required for an accurate reading. […]
as §4

| Structure (SMILES) | Acceptable MIC range values [1] [µg/mL] | Acceptable MIC range values [2] [µg/mL] | Acceptable MIC range values [3] [µg/mL] |
| --- | --- | --- | --- |
| C[C@@H]1[C@H](O)[C@@H](C)/C=C/C=C/C=C/C=C/C=C/C=C/C=C/[C@H](O[C@@H]2O[C@H](C)[C@@H](O)[C@H](N)[C@@H]2O)C[C@@H]2O[C@](O)(C[C@@H](O)C[C@@H](O)[C@H](O)CC[C@@H](O)C[C@@H](O)CC(=O)O[C@H]1C)C[C@H](O)[C@H]2C(=O)O [Am B, Amphotericin B] | 0.25 to 1.0 | 0.25 to 1.0 | 0.5 to 2.0 |
| CCC(C)n1ncn(-c2ccc(N3CCN(c4ccc(OCC5COC(Cn6cncn6)(c6ccc(Cl)cc6Cl)O5)cc4)CC3)cc2)c1=O (centres unmarked) [Itraconazole] | – | 0.25 to 1.0 | 0.25 to 1.0 |
